In paper PMC8892849 (ACS Omega, 2022):

How the values were obtained:
[1] = test system: prostate carcinoma (PC-3); assay: In vitro cytotoxic assay; type: cell-based, human; conditions: for IC50: Homo sapiens, 48 h, read-out: IC50 (mean ± SEM) PC-3; for SI (selectivity index) PC-3: normal PBMC vs PC-3
[2] = test system: hepatocellular carcinoma (HepG-2); assay: In vitro cytotoxic assay; type: cell-based, human; conditions: for IC50: Homo sapiens, HepG2, 48 h, read-out: IC50 (mean ± SEM) HepG-2; for SI (selectivity index) HepG-2: normal PBMC vs HepG-2
[3] = test system: non-small cell lung cancer cells (A-549); assay: In vitro cytotoxic assay; type: cell-based, human; conditions: for IC50: Homo sapiens, A549, 48 h, read-out: IC50 (mean ± SEM) A-549; for SI (selectivity index) A-549: normal PBMC vs A-549
[4] = test system: breast adenocarcinoma (MCF-7); assay: In vitro cytotoxic assay; type: cell-based, human; conditions: for IC50: Homo sapiens, MCF7, 48 h, read-out: IC50 (mean ± SEM) MCF-7; for SI (selectivity index) MCF-7: normal PBMC vs MCF-7
In vitro cytotoxic assay = type: cell-based; conditions: normal peripheral blood mononuclear cells (PBMCs)
EGFR^T790M = EGFR^T790M (Homo sapiens, UniProt P00533, T790M); assay: HTRF kinase inhibition assay, EGFR^T790M
EGFR^WT = EGFR^WT (Homo sapiens, UniProt P00533); assay: HTRF kinase inhibition assay, EGFR^WT
p53 ubiquitination = assay: In vivo p53 ubiquitination inhibition of MCF-7 cells; type: cell-based; conditions: Homo sapiens, MCF7, 6 h, read-out: IC50 (mean ± SEM) p53 ubiquitination

EGFR^T790M, sequence (P00533 25-1210 T790M): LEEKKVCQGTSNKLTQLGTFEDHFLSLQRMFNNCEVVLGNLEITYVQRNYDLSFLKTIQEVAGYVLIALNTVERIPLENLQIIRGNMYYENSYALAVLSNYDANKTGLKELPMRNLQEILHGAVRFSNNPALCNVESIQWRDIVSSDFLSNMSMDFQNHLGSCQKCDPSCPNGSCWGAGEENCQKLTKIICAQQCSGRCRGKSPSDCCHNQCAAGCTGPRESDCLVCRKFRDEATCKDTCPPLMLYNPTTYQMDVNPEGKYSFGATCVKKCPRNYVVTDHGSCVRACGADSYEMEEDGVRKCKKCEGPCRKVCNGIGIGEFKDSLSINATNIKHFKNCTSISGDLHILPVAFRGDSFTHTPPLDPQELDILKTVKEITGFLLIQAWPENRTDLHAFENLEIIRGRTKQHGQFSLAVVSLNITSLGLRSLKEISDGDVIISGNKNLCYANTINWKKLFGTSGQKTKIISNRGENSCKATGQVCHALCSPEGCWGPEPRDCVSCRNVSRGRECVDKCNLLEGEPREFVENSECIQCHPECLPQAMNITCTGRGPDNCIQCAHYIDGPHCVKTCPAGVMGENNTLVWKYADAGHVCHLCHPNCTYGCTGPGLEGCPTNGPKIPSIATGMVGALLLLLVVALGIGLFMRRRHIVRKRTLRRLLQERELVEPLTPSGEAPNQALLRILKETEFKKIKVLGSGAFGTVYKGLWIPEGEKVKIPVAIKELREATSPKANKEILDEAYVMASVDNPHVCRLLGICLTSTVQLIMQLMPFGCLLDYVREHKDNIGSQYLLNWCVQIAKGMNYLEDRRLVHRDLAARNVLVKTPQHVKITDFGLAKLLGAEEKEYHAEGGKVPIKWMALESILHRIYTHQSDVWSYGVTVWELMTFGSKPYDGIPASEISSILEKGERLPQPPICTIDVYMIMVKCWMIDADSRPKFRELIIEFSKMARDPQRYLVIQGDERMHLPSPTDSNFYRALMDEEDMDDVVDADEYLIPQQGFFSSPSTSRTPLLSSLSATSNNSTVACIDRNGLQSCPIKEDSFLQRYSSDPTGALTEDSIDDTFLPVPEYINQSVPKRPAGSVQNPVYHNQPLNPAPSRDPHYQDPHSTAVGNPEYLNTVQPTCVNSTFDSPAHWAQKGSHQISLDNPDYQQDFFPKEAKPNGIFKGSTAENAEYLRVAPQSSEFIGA
EGFR^WT, sequence (P00533 25-1210): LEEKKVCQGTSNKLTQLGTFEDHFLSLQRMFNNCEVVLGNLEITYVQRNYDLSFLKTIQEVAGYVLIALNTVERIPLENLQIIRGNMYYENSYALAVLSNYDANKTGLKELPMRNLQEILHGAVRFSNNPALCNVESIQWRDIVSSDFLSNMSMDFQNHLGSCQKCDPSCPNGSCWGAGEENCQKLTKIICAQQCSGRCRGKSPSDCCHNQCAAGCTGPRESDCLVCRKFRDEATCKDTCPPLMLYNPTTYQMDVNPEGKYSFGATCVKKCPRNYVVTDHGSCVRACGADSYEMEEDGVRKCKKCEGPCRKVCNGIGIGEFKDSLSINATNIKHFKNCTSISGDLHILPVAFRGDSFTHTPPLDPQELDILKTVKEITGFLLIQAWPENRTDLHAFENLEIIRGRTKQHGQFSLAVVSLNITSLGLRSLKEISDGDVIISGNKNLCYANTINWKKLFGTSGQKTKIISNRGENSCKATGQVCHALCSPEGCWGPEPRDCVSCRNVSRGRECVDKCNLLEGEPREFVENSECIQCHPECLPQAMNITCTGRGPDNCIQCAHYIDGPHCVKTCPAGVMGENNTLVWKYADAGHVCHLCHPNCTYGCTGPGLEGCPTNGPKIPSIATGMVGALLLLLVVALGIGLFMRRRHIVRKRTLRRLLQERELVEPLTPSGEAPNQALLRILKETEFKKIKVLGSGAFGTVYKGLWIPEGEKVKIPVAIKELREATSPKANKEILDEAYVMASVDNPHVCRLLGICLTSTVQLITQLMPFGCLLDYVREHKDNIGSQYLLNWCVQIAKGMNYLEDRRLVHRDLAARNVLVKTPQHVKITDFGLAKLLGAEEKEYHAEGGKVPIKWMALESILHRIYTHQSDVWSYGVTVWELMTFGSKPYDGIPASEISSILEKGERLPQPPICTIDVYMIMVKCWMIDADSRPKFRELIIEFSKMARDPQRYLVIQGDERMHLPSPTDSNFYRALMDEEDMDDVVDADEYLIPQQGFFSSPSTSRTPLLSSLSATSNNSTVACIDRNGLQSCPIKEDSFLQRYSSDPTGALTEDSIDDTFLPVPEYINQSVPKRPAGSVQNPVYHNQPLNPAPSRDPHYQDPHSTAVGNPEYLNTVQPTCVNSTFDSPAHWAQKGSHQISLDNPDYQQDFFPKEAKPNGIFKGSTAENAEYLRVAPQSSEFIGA

Row | SMILES | IC50 [1] [µM] | SI (selectivity index) PC-3 [1] | IC50 [2] [µM] | SI (selectivity index) HepG-2 [2] | IC50 [3] [µM] | SI (selectivity index) A-549 [3] | IC50 [4] [µM] | SI (selectivity index) MCF-7 [4] | IC50 at 48 h (In vitro cytotoxic assay) [µM] | IC50 (EGFR^T790M) [µM] | IC50 (EGFR^WT) [µM] | fold more potent EGFR^WT inhibitor than erlotinib (EGFR^WT; EGFR^WT) [fold] | folds more potent than doxorubicin ([3]; A-549 cell line) [folds] | folds more potent than doxorubicin and erlotinib ([4]; MCF-7 cells) [folds] | IC50 (p53 ubiquitination) [µM] | folds less potency compared to erlotinib ([3]; A-549) [folds]
1 | O=[N+]([O-])c1ccc(N=c2nc(Cc3ccccc3)[nH]c(=S)[nH]2)c(Cl)c1 [Compound 8d, 6-Benzyl-4-((2-chloro-4-nitrophenyl)imino)-3,4-dihydro-1,3,5-triazine-2(1H)-thione] | 39.55 ± 0.08 | SI = 4.52 | 47.86 ± 0.05 | SI = 3.74 | 9.5 ± 0.06 | SI = 18.85 | 14.77 ± 0.05 | SI = 12.12 | 179 ± 19 |  |  |  |  |  |  | 
2 | O=C(Cc1ccccc1)Nc1nc2ccccc2[nH]1 [Compound 3, N-(1H-Benzo[d]imidazol-2-yl)-2-phenylacetamide] | 17.29 ± 0.03 |  | 37.73 ± 0.02 |  | 10.42 ± 0.05 |  | 6.59 ± 0.07 |  | 179 ± 18.8 |  |  |  |  |  |  | 
3 | Oc1cccc(Nc2nc(Cc3ccccc3)nn2-c2ccccc2)c1 [Compound 6b, 3-((3-Benzyl-1-phenyl-1H-1,2,4-triazol-5-yl)amino)phenol] | 13.21 ± 0.06 | SI = 13.49 | 5.47 ± 0.02 | SI = 32.58 | 3.18 ± 0.03 | SI = 56.04 | 1.29 ± 0.03 | SI = 138.16 | 178 ± 17.7 | 0.09 ± 0.01 | 0.08 ± 0.05 | 1 | 2.6 | 3.2 | 0.0005 ± 5e-05 | 
4 | CC(C)NC(=S)NC(=O)Cc1ccccc1 [Compound 2a, N-(Isopropylcarbamothioyl)-2-phenylacetamide] | 26.8 ± 2.21 |  | 57.85 ± 0.07 |  | 34.57 ± 0.06 |  | 37.73 ± 0.08 |  | 121 ± 11.3 |  |  |  |  |  |  | 
5 | O=c1nc(Cc2ccccc2)[nH]c(Nc2nccs2)n1 [Compound 7, 4-Benzyl-6-(thiazol-2-ylamino)-1,3,5-triazin-2(5H)-one] | 17.9 ± 0.03 |  | 29.75 ± 0.03 |  | 7.43 ± 0.04 |  | 4.65 ± 0.07 |  | 165 ± 18.1 | 0.18 ± 0.11 | 0.22 ± 0.05 |  |  |  |  | ~2
6 | COc1cccc2c1C(=O)c1c(O)c3c(c(O)c1C2=O)C[C@@](O)(C(=O)CO)C[C@@H]3O[C@H]1C[C@H](N)[C@H](O)[C@H](C)O1 [DOX, doxorubicin, reference compound] | 8.11 ± 0.05 |  | 4.51 ± 0.26 |  | 8.2 ± 0.08 |  |  |  | 250 ± 26.6 |  |  |  |  |  |  | 
7 | Oc1cccc(N=c2nc(Cc3ccccc3)[nH]c(=S)[nH]2)c1 [Compound 8c, 6-Benzyl-4-((3-hydroxyphenyl)imino)-3,4-dihydro-1,3,5-triazine-2(1H)-thione] | 32.48 ± 0.04 | SI = 5.81 | 45.49 ± 0.04 | SI = 4.15 | 8.29 ± 0.03 | SI = 22.78 | 10.31 ± 0.04 | SI = 18.32 | 189 ± 19.9 |  |  |  |  |  |  | 
8 | c1ccc(Cc2nnc(Nc3nccs3)[nH]2)cc1 [Compound 5b, N-(5-Benzyl-4H-1,2,4-triazol-3-yl)thiazol-2-amine] | 18.22 ± 0.03 | SI = 9.09 | 38.49 ± 0.02 | SI = 4.30 | 8.27 ± 0.03 | SI = 20.04 | 4.18 ± 0.03 | SI = 39.65 | 166 ± 17.4 | 0.13 ± 0.11 | 0.22 ± 0.15 |  |  |  | 0.00062 ± 5e-05 | 
9 | Oc1cccc(Nc2nnc(Cc3ccccc3)[nH]2)c1 [Compound 5c, 3-((5-Benzyl-4H-1,2,4-triazol-3-yl)amino)phenol] | 18.44 ± 0.04 | SI = 7.93 | 27.59 ± 0.04 | SI = 5.23 | 12.3 ± 0.04 | SI = 11.89 | 4.33 ± 0.04 | SI = 33.79 | 146 ± 16.1 | 0.14 | 0.24 ± 0.3 |  |  |  |  | 
10 | C#Cc1cccc(Nc2ncnc3cc(OCCOC)c(OCCOC)cc23)c1 [erlotinib, reference compound] | 8.89 ± 0.6 |  |  |  | 3.76 ± 0.2 |  |  |  | 45.8 ± 26.6 |  |  |  |  |  |  | 
11 | O=[N+]([O-])c1ccc(Nc2nc(Cc3ccccc3)nn2-c2ccccc2)c(Cl)c1 [Compound 6c, 3-Benzyl-N-(2-chloro-4-nitrophenyl)-1-phenyl-1H-1,2,4-triazol-5-amine] | 26.41 ± 0.05 | SI = 7.10 | 7.73 ± 0.04 | SI = 24.27 | 5.8 ± 0.05 | SI = 32.35 | 2.51 ± 0.06 | SI = 74.76 | 188 ± 19.8 | 0.13 ± 0.07 | 0.15 ± 0.02 |  |  |  | 0.00048 ± 2e-05 | 
12 | c1ccc(Cc2nc(Nc3nccs3)n(-c3ccccc3)n2)cc1 [Compound 6a, N-(3-Benzyl-1-phenyl-1H-1,2,4-triazol-5-yl)thiazol-2-amine] | 16.3 ± 0.09 | SI = 9.65 | 10.48 ± 0.03 | SI = 15.02 | 5.2 ± 0.03 | SI = 30.27 | 4.3 ± 0.04 | SI = 36.61 | 157 ± 16.9 | 0.12 ± 0.18 | 0.18 ± 0.1 |  |  |  |  | 
13 | O=C(Cc1ccccc1)NC(=S)Nc1cccc(O)c1 [Compound 2d, N-((3-Hydroxyphenyl)carbamothioyl)-2-phenylacetamide] | 39.3 |  | 34.77 ± 0.03 |  | 20.84 ± 0.04 |  | 24.74 ± 0.08 |  | 158 ± 16.4 |  |  |  |  |  |  | 
14 | S=c1[nH]c(Cc2ccccc2)nc(=Nc2nccs2)[nH]1 [Compound 8b, 6-Benzyl-4-(thiazol-2-ylimino)-3,4-dihydro-1,3,5-triazine-2(1H)-thione] | 42.56 ± 0.06 | SI = 4.62 | 60.48 ± 0.05 | SI = 3.25 | 37.21 ± 0.03 | SI = 5.28 | 17.95 ± 0.04 | SI = 10.95 | 197 ± 20.7 |  |  |  |  |  |  | 
15 | O=C(Cc1ccccc1)NC(=S)Nc1ccc([N+](=O)[O-])cc1Cl [Compound 2e, N-((2-Chloro-4-nitrophenyl)carbamothioyl)-2-phenylacetamide] | 40.56 ± 0.05 |  | 37.76 ± 0.05 |  | 25.96 ± 0.05 |  | 25.64 ± 0.08 |  | 169 ± 17.4 |  |  |  |  |  |  | 
16 | Nc1ccccc1NC(=S)NC(=O)Cc1ccccc1 [Compound 2c, N-((2-Aminophenyl)carbamothioyl)-2-phenylacetamide] | 25.44 ± 0.04 |  | 47.66 ± 0.04 |  | 27.81 ± 0.04 |  | 21.76 ± 0.08 |  | 145 ± 14.9 |  |  |  |  |  |  | 
17 | CC(C)Nc1nnc(Cc2ccccc2)[nH]1 [Compound 5a, 5-Benzyl-N-isopropyl-4H-1,2,4-triazol-3-amine] | 16.49 ± 0.05 | SI = 10.60 | 35.66 ± 0.04 | SI = 4.90 | 10.37 ± 0.04 | SI = 16.86 | 5.42 ± 0.05 | SI = 32.26 | 175 ± 18.2 | 0.17 ± 0.05 | 0.25 ± 0.01 |  |  |  | 0.00068 ± 1e-05 | 
18 | CC(C)N=c1nc(Cc2ccccc2)[nH]c(=S)[nH]1 [Compound 8a, 6-Benzyl-4-(isopropylimino)-3,4-dihydro-1,3,5-triazine-2(1H)-thione] | 36.55 ± 0.03 | SI = 4.74 | 59.84 ± 0.05 | SI = 2.91 | 25.46 ± 0.05 | SI = 6.81 | 13.75 ± 0.08 | SI = 12.61 | 173 ± 18.9 |  |  |  |  |  |  | 
